How the values were obtained:
[1] = system: SF-268; test: NCI60 cell line screen; details: Homo sapiens
[2] = system: A549/ATCC; test: NCI60 cell line screen; details: Homo sapiens
[3] = system: U251; test: NCI60 cell line screen; details: Homo sapiens, U-251
[4] = system: SF-295; test: NCI60 cell line screen; details: Homo sapiens
[5] = system: T-47D; test: NCI60 cell line screen; details: Homo sapiens, T47D
[6] = system: A498; test: NCI60 cell line screen; details: Homo sapiens
[7] = system: RXF 393; test: NCI60 cell line screen; details: Homo sapiens
[8] = system: RPMI-8226; test: NCI60 cell line screen; details: Homo sapiens
[9] = system: CAKI-1; test: NCI60 cell line screen; details: Homo sapiens
[10] = system: SF-539; test: NCI60 cell line screen; details: Homo sapiens
[11] = system: NCI-H460; test: NCI60 cell line screen; details: Homo sapiens
[12] = system: MCF-7; test: NCI60 cell line screen; details: Homo sapiens, MCF7
[13] = system: EKVX; test: NCI60 cell line screen; details: Homo sapiens
[14] = system: HCT-116; test: NCI60 cell line screen; details: Homo sapiens
[15] = system: MDA-MB-435; test: NCI60 cell line screen; details: Homo sapiens
[16] = system: TK-10; test: NCI60 cell line screen; details: Homo sapiens
[17] = system: 786-0; test: NCI60 cell line screen; details: Homo sapiens
[18] = system: LOX IMVI; test: NCI60 cell line screen; details: Homo sapiens
[19] = system: NCI-H23; test: NCI60 cell line screen; details: Homo sapiens
[20] = system: SW-620; test: NCI60 cell line screen; details: Homo sapiens
[21] = system: MDA-MB-231/ATCC; test: NCI60 cell line screen; details: Homo sapiens
[22] = system: HCT-15; test: NCI60 cell line screen; details: Homo sapiens
[23] = system: UO-31; test: NCI60 cell line screen; details: Homo sapiens
[24] = system: COLO 205; test: NCI60 cell line screen; details: Homo sapiens
[25] = system: MCF-7 breast cancer cell line; test: Antiproliferation study, MTT cell viability assay; assay type: cell-based; details: Homo sapiens, MCF7, 72 h, antiproliferative activity, MTT, 72 h; read-out: IC50 (μM) MCF-7 cell line
Procedure, shortened: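 Cells seeded at 2.5×10^4 cells/ml and grown 24 h at 37 °C before compound treatment; vehicle 1% v/v ethanol. MTT at 1 mg/mL final for 2 h at 37 °C, then DMSO solubilisation and absorbance read. Viability expressed as % of untreated control, in triplicate, with compounds tested as free bases.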

[26] = system: CCRF-CEM; test: NCI60 cell line screen; details: Homo sapiens
[27] = system: SK-OV-3; test: NCI60 cell line screen; details: Homo sapiens
[28] = system: SN12C; test: NCI60 cell line screen; details: Homo sapiens
[29] = system: NCI/ADR-RES; test: NCI60 cell line screen; details: Homo sapiens
[30] = system: HOP-92; test: NCI60 cell line screen; details: Homo sapiens
[31] = system: OVCAR-8; test: NCI60 cell line screen; details: Homo sapiens
[32] = system: ACHN; test: NCI60 cell line screen; details: Homo sapiens
[33] = system: SK-MEL-28; test: NCI60 cell line screen; details: Homo sapiens
[34] = system: KM12; test: NCI60 cell line screen; details: Homo sapiens
[35] = system: HCT-2998; test: NCI60 cell line screen
[36] = system: MDA-MB-468; test: NCI60 cell line screen; details: Homo sapiens

Structure (SMILES) | GI50 [1] | GI50 [2] | GI50 [3] | GI50 [4] | GI50 [5] | GI50 [6] | GI50 [7] | GI50 [8] | GI50 [9] | GI50 [10] | GI50 [11] | GI50 [12] | GI50 [13] | GI50 [14] | GI50 [15] | GI50 [16] | GI50 [17] | GI50 [18] | GI50 [19] | GI50 [20] | other results
COc1ccc(C2C(c3ccccc3)C(=O)N2c2cc(OC)c(OC)c(OC)c2)cc1O (stereo not drawn) [Compound 4, 4-(3-Hydroxy-4-methoxyphenyl)-3-phenyl-1-(3,4,5-trimethoxyphenyl)-azetidin-2-one] | < 0.01 µM | < 0.01 µM | < 0.01 µM | < 0.01 µM | 31.2 µM | < 0.01 µM | < 0.01 µM | < 0.01 µM | < 0.01 µM | < 0.01 µM | < 0.01 µM | < 0.01 µM | < 0.01 µM | < 0.01 µM | < 0.01 µM | < 0.01 µM | 0.034 µM | < 0.01 µM | < 0.01 µM | < 0.01 µM | melting point: 110 °C; GI50 [21]: < 0.01 µM; GI50 [22]: < 0.01 µM; GI50 [23]: 0.032 µM; GI50 [24]: 0.019 µM; IC50 [25]: 0.0096 µM; GI50 [26]: < 0.01 µM; GI50 [27]: 0.037 µM; GI50 [28]: < 0.01 µM; GI50 [29]: < 0.01 µM; GI50 [30]: 5.15 µM; GI50 [31]: 0.01 µM; GI50 [32]: < 0.01 µM; GI50 [33]: < 0.01 µM; GI50 [34]: < 0.01 µM; GI50 [35]: 0.035 µM; GI50 [36]: < 0.01 µM
COc1ccc(C2C(c3ccccc3)C(=O)N2c2cc(OC)c(OC)c(OC)c2)cc1 (stereo not drawn) [Compound 8, 4-(4-Methoxy-phenyl)-3-phenyl-1-(3,4,5-trimethoxy-phenyl)-azetidin-2-one] | 0.354 µM | 0.238 µM | 0.095 µM | 0.035 µM | > 100 µM | 0.0375 µM | 0.0365 µM | 0.0293 µM | 0.0848 µM | 0.033 µM | 0.198 µM | 0.0351 µM | 0.352 µM | 0.0398 µM | 0.0239 µM | 6.78 µM | 0.432 µM | 0.0676 µM | 0.427 µM | 0.0487 µM | melting point: 108 °C; GI50 [21]: 0.2 µM; GI50 [22]: 0.17 µM; GI50 [23]: 0.396 µM; GI50 [24]: 0.166 µM; IC50 [25]: 0.034 µM; GI50 [26]: 0.0372 µM; GI50 [27]: 0.412 µM; GI50 [28]: 0.312 µM; GI50 [29]: 0.0425 µM; GI50 [30]: 22.7 µM; GI50 [31]: 0.125 µM; GI50 [32]: 0.138 µM; GI50 [33]: 0.405 µM; GI50 [34]: 0.0427 µM; GI50 [35]: 0.349 µM; GI50 [36]: 0.0684 µM
COc1ccc(C2C(c3cccs3)C(=O)N2c2cc(OC)c(OC)c(OC)c2)cc1 (stereo not drawn) [Compound 12, 4-(4-Methoxyphenyl)-3-thiophen-2-yl-1-(3,4,5-trimethoxyphenyl)-azetidin-2-one] | 0.028 µM | 0.023 µM | 0.037 µM | < 0.01 µM | > 1000 µM | < 0.01 µM | < 0.01 µM | < 0.01 µM | 0.016 µM | < 0.01 µM | 0.03 µM | < 0.01 µM | 0.034 µM | < 0.01 µM | < 0.01 µM | < 0.01 µM | 0.031 µM | < 0.01 µM | 0.036 µM | 0.01 µM | melting point: 115 °C; GI50 [21]: 0.01 µM; GI50 [22]: 0.026 µM; GI50 [23]: 0.038 µM; GI50 [24]: 0.015 µM; IC50 [25]: 0.064 µM; GI50 [26]: < 0.01 µM; GI50 [27]: 0.038 µM; GI50 [28]: < 0.01 µM; GI50 [29]: < 0.01 µM; GI50 [30]: 0.051 µM; GI50 [31]: < 0.01 µM; GI50 [32]: < 0.01 µM; GI50 [33]: 0.01 µM; GI50 [34]: < 0.01 µM; GI50 [35]: 0.03 µM; GI50 [36]: < 0.01 µM

Reference: patent US20120309734A1, “COMBRETASTATIN DERIVATIVES AND USES THEREFOR” (priority 2009, published 2012)
